Patent publication US7371780B2, “Use of calphostin C to treat drug-resistant tumor cells” (priority 2003, dated 2008)

Tested on: caspase-8, PARP and cytochrome C in MCF-7 cells
Test: Immunoblotting of apoptosis markers, MCF-7
Format: cell-based, human
Description: For preparation of mitochondrial and cytoplasmic cellular fractions, MCF-7, MCF-7TAX, and MCF-7DOX cells were grown in a monolayer to 70-90% confluence on 10 cm tissue culture plates. Twenty-four hours prior to extraction, the cells were treated with 50 nM light-activated calphostin C as described above. After this treatment, the cells were trypsinized, centrifuged at 1000 rpm in a Beckman GP centrifuge and washed with PBS. To the resulting cell pellet, 1 ml of ice-cold homogenization (HM) buffer was added. This buffer consisted of 85.55 g sucrose, 1.406 g MOPS, 0.292 g EDTA, and 1 ml ethanol per liter of solution, with a final pH of 7.2. Prior to use, 0.2 ml of 0.1 M PMSF, 1 Complete™ protease inhibitor tablet (Roche Diagnostics, Laval, QC), and 20 μl of 1 M DTT was added for 100 ml of HM buffer. Cells were then lysed 10 times by homogenization in a 2 ml dounce homogenizer. Nuclei in the lysate were then pelleted by centrifugation in a microfuge tube at 70 g for 10 minutes at 4° C. and the supernatant carefully removed. The supernatant was clarified by centrifugation at 1950 g for 10 minutes at 4° C. and the pellet (containing mitochondria) was resuspended in 50 μl of HM buffer. The remaining clarified supernatant was deemed the cytoplasmic fraction. […]

For COc1c(C[C@@H](C)OC(=O)Oc2ccc(O)cc2)c2c3c(C[C@@H](C)OC(=O)c4ccccc4)c(OC)c(=O)c4c(O)cc(OC)c(c5c(OC)cc(O)c(c1=O)c52)c43 [calphostin C], the “caspase-8 and PARP cleavage (protein levels)” value (light-activated calphostin C, whole cell extracts) was “did not result in any change” and the “release of cytochrome C from mitochondria” value (mitochondrial and cytoplasmic fractions) was “no clear evidence for the release of cytochrome C”.
